Data taken from PubChem BioAssay (NCI).
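Growth conditions: 96-well plates. Treatment: test compound, 48 hours, 5 concentrations. Analysis: linear interpolation between bracketing concentrations; unreached endpoints set to highest concentration. TGI: concentration producing complete growth inhibition.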 Where a SMILES comes first, the peptide text is derived from it. The star is where a group is joined. X36 = O=C(c1ccc(-c2ccc(Cl)cc2Cl)o1)*

How the values were obtained:
Assay in all cases: inhibition of tumour cell growth, NCI panel, 48 h
NCI-H522 lung = system: NCI-H522 lung
LXFL 529 NSCLC = system: LXFL 529 NSCLC
DMS 114 small cell lung = system: DMS 114 small cell lung
M19-MEL melanoma = system: M19-MEL melanoma
DMS 273 small cell lung = system: DMS 273 small cell lung
HOP-18 NSCLC = system: HOP-18 NSCLC
DLD-1 colon = system: DLD-1 colon
KM20L2 colon = system: KM20L2 colon
RXF-631 renal = system: RXF-631 renal
XF 498 CNS = system: XF 498 CNS
SNB-78 CNS = system: SNB-78 CNS

SMILES: Cc1cc(C2(O)C=C(C(C)(C)C)C(=O)C(C(C)(C)C)=C2)c(C)cc1C1(O)C=C(C(C)(C)C)C(=O)C(C(C)(C)C)=C1
- TGI (NCI-H522 lung): > 100 µM

SMILES: CCCCCCCCCCCCCCCCCC(=O)O[C@H](COC(=O)CCCCCCCCCCC)COC(=O)CCCCCCCCCCCCCCC
- TGI (LXFL 529 NSCLC): > 100 µM
- TGI (DMS 114 small cell lung): > 100 µM
- TGI (M19-MEL melanoma): > 100 µM
- TGI (DMS 273 small cell lung): > 100 µM
- TGI (HOP-18 NSCLC): > 100 µM
- TGI (DLD-1 colon): > 100 µM
- TGI (KM20L2 colon): > 100 µM
- TGI (RXF-631 renal): > 100 µM

SMILES: COc1cc(C2SCC(=O)N2c2ccc(-c3ccc(-n4c(-c5ccccc5)nc5ccccc5c4=O)cc3)cc2)cc(OC)c1OC (stereo not drawn)
- TGI (NCI-H522 lung): 62.3 µM

SMILES: COC(=O)[C@@H]1CCCN1CCN1CCC[C@H]1C(=O)OC
- TGI (NCI-H522 lung): > 100 µM

SMILES: CN(C)Cc1cc(C(=O)/C=C/c2ccccc2Cl)cc(CN(C)C)c1O
- TGI (NCI-H522 lung): 18 µM

SMILES: O=C(O)c1ccc(S(=O)(=O)c2ccccc2[N+](=O)[O-])cc1
- TGI (NCI-H522 lung): > 10 µM

SMILES: C=CCCC(=O)CC(O)(C(F)(F)F)C(F)(F)F
- TGI (NCI-H522 lung): > 100 µM

SMILES: CC(=O)O[C@H]1CC[C@@]2(C)C(=CC[C@H]3[C@@H]4C[C@H](N5CCCC5)[C@H](OC(C)=O)[C@@]4(C)CC[C@@H]32)C1
- TGI (NCI-H522 lung): > 100 µM

SMILES: CCC1(C(=O)OC(C)(C)C)OC12C(C)CCCC2C (stereo not drawn)
- TGI (NCI-H522 lung): > 100 µM

SMILES: CCC(C)C(NC(=O)CNC(=O)C(Cc1ccccc1)NC(=O)C1CCCN1C(=O)c1ccc(-c2ccc(Cl)cc2Cl)o1)C(=O)OC (stereo not drawn) (X36-PFGI-OMe; configuration not given here)
- TGI (NCI-H522 lung): > 100 µM

SMILES: CC(=O)OC1CC2C(C)(C)OC(=O)CC(OC(C)=O)[C@]2(C)C2CCC3(C)C(=CCC3[C@H]3COC(=O)C3)[C@]12C (stereo partly drawn)
- TGI (LXFL 529 NSCLC): > 100 µM
- TGI (DMS 114 small cell lung): > 100 µM
- TGI (NCI-H522 lung): > 100 µM
- TGI (XF 498 CNS): > 100 µM
- TGI (SNB-78 CNS): > 100 µM
- TGI (M19-MEL melanoma): > 100 µM
- TGI (DMS 273 small cell lung): > 100 µM
- TGI (DLD-1 colon): > 100 µM
- TGI (KM20L2 colon): > 100 µM

SMILES: CC1=NN2C(=N)/C(=C/c3ccco3)C(=O)N=C2S1
- TGI (NCI-H522 lung): > 100 µM

SMILES: O=C1Nc2c(ccc(Cl)c2I)C1=O
- TGI (LXFL 529 NSCLC): 27.5 µM
- TGI (DMS 114 small cell lung): 30.1 µM
- TGI (NCI-H522 lung): 30.6 µM
- TGI (XF 498 CNS): 29.9 µM
- TGI (M19-MEL melanoma): 24.1 µM
- TGI (DMS 273 small cell lung): 37 µM
- TGI (DLD-1 colon): 35.3 µM
- TGI (KM20L2 colon): > 100 µM

SMILES: COc1ccc(O)cc1
- TGI (LXFL 529 NSCLC): > 100 µM
- TGI (DMS 114 small cell lung): > 100 µM
- TGI (XF 498 CNS): > 100 µM
- TGI (SNB-78 CNS): > 100 µM
- TGI (M19-MEL melanoma): > 100 µM
- TGI (DLD-1 colon): > 100 µM
- TGI (KM20L2 colon): > 100 µM

SMILES: Cc1ccc([C@H]2CC(=O)C[C@H](c3ccc(C)cc3)C23C(=O)c2ccccc2C3=O)cc1
- TGI (NCI-H522 lung): 26.5 µM

SMILES: O=c1[nH]nc(Cc2ccc([N+](=O)[O-])cc2)n1CCO
- TGI (NCI-H522 lung): > 100 µM

SMILES: CN(O)C(=O)c1cccc(Cl)c1
- TGI (NCI-H522 lung): > 100 µM

SMILES: NCCSc1nc2ccccc2c(=O)n1-c1ccccc1
- TGI (NCI-H522 lung): > 100 µM

SMILES: COC(=O)C1=CC(=O)OC1(OO)c1ccccc1 (stereo not drawn)
- TGI (NCI-H522 lung): > 100 µM

SMILES: CCOC(=O)/C=C(/C(=O)OCC)n1ccc(N)nc1=O
- TGI (NCI-H522 lung): 54.8 µM

SMILES: CCn1nc2c3c(ncn3C(C)(C)O2)c1=O
- TGI (NCI-H522 lung): > 100 µM

SMILES: CCCC(C)NC1=C(NC(C)=O)C(=O)c2ccccc2C1=O (stereo not drawn)
- TGI (LXFL 529 NSCLC): > 100 µM
- TGI (NCI-H522 lung): > 100 µM
- TGI (XF 498 CNS): > 100 µM
- TGI (SNB-78 CNS): > 100 µM
- TGI (M19-MEL melanoma): > 100 µM
- TGI (DMS 273 small cell lung): > 100 µM
- TGI (DLD-1 colon): > 100 µM
- TGI (KM20L2 colon): > 100 µM

SMILES: O=C1c2ccccc2CCCCCCCCCCC12OCCCO2
- TGI (LXFL 529 NSCLC): > 100 µM
- TGI (DMS 114 small cell lung): 37.5 µM
- TGI (NCI-H522 lung): 67.2 µM
- TGI (SNB-78 CNS): > 100 µM
- TGI (M19-MEL melanoma): > 100 µM
- TGI (DMS 273 small cell lung): > 100 µM
- TGI (HOP-18 NSCLC): > 100 µM
- TGI (DLD-1 colon): > 100 µM
- TGI (KM20L2 colon): 71.7 µM

SMILES: CN(NC(=O)c1cccs1)C1=NCCCN1
- TGI (NCI-H522 lung): > 100 µM

SMILES: CCOP(=O)(OCC)c1c(C(=O)OC)cc(=O)[nH]c1-c1ccc(C)cc1
- TGI (NCI-H522 lung): 3.03 µM

SMILES: C1CCC2C(C1)CCCC2NC1=NCCO1 (stereo not drawn)
- TGI (NCI-H522 lung): > 100 µM

SMILES: O=C(O)CC[N+]1=CCC(c2ccccc2)(c2ccccc2)O1
- TGI (NCI-H522 lung): > 100 µM

SMILES: Cc1ccc(/C(O)=C/C(=O)C(=O)/C=C(\O)c2ccc(C)cc2C)c(C)c1
- TGI (NCI-H522 lung): 4.53 µM

SMILES: CC(=O)c1ccc2c3c1[C@@H]1O[C@@H]1c1cccc(c1-3)[C@@H]1O[C@H]21
- TGI (NCI-H522 lung): 13 µM

SMILES: COc1ccc(Nc2nc(NS(=O)(=O)c3cc(C)c(Cl)cc3S)n[nH]2)cc1
- TGI (NCI-H522 lung): > 100 µM

SMILES: Cc1ccn2c(=O)cc(-c3ccccc3)nc2c1
- TGI (NCI-H522 lung): > 100 µM

SMILES: Nc1c(Cl)ncnc1N[C@@H]1C[C@H]1CO
- TGI (NCI-H522 lung): > 100 µM

SMILES: O=c1oc2ccccc2c(Nc2ccc3c(c2)Oc2ccccc2O3)c1[N+](=O)[O-]
- TGI (NCI-H522 lung): 65.5 µM

SMILES: CC1CCOc2ccc(cc2)C=Nc2ccc(cc2)CCc2ccc(cc2)N=Cc2ccc(cc2)OCC1 (stereo not drawn)
- TGI (NCI-H522 lung): > 100 µM

SMILES: CCC(C#N)NC(=O)NC(C#N)CC (stereo not drawn)
- TGI (NCI-H522 lung): > 100 µM

SMILES: COc1ccc(/C=N/N=C(\N)NO)c(O)c1
- TGI (NCI-H522 lung): > 10 µM

SMILES: O=C1OC2(OC2c2ccccc2)c2ccccc21 (stereo not drawn)
- TGI (LXFL 529 NSCLC): > 100 µM
- TGI (DMS 114 small cell lung): 11 µM
- TGI (NCI-H522 lung): > 100 µM
- TGI (XF 498 CNS): > 100 µM
- TGI (M19-MEL melanoma): > 100 µM
- TGI (DMS 273 small cell lung): > 100 µM
- TGI (DLD-1 colon): > 100 µM
- TGI (KM20L2 colon): > 100 µM

SMILES: CC(=O)N1N=C(c2ccc3ccccc3c2O)CC1C(=O)c1ccco1 (stereo not drawn)
- TGI (NCI-H522 lung): 76.6 µM

SMILES: NC1=NS(=O)(=O)Nc2nc(-c3ccc(Cl)cc3)c(-c3ccc(Cl)cc3)nc21
- TGI (LXFL 529 NSCLC): > 100 µM
- TGI (DMS 114 small cell lung): > 100 µM
- TGI (NCI-H522 lung): > 100 µM
- TGI (XF 498 CNS): > 100 µM
- TGI (SNB-78 CNS): > 100 µM
- TGI (M19-MEL melanoma): > 100 µM
- TGI (DMS 273 small cell lung): > 100 µM
- TGI (HOP-18 NSCLC): > 100 µM
- TGI (DLD-1 colon): > 100 µM
- TGI (RXF-631 renal): > 100 µM
